Assay results published in US8383679B2, “Crystal form of calcium 3-acetylaminopropane-1-sulfonate” (Merck Patent Gesellschaft mit beschränkter Haftung, priority 2008, dated 2013).

What was measured:
[1] = Enthalpy of solution, 2225 Thermometrics Solution calorimeter; assay type: physicochemical
[2] = Suspension-conversion experiments; assay type: physicochemical; details: suspension of crystals
Source text: Suitable suspension media are solvents in which the active compound is soluble, where the active compound is employed in a weight ratio in relation to the respective solvent in the suspension in which the solubility limit of the active compound in the solvent is exceeded, so that the active compound is predominantly in the form of a solid in the suspension. Suitable suspension media are, for example, water, methanol and/or tetrahydrofuran (THE), where water is particularly preferred.

difference in enthalpy of solution between form II and form I ([1]; in water at 25° C.)	enthalpy of solution ([1]; in water at 25° C.)	conversion of crystal form in suspension [2]	Structure (SMILES)	thermodynamic stability (free Gibbs enthalpy) relative to the other crystal form ([1]; concluded from enthalpies of solution)
6.9 ± 0.4 J/g	16.2 ± 0.2 J/g	–	CC(=O)NCCCS(=O)(=O)O [form II, calcium 3-acetylaminopropane-1-sulfonate]	thermodynamically more stable than form I
–	-23.1 ± 0.2 J/g	rearrangement to crystal form II	CC(=O)NCCCS(=O)(=O)O [form I, calcium 3-acetylaminopropane-1-sulfonate]	–
